Results from patent US20240180900A1, “COMPOUNDS AND METHODS FOR THE TARGETED DEGRADATION OF ANDROGEN RECEPTOR” (Arvinas Operations, Inc., priority 2022, published 2024).

Tests used:
[1] = target: T1, AR (LNCaP cells, AR mutation T878A) (Homo sapiens, UniProt P10275, T878A); assay: AR degradation assay in LNCaP cells; format: cell-based; conditions: 24 hours of treatment
T1 construct: endogenous in cells; host or cells: LNCaP
Method: FIG. 2 is an analysis of Compound A in in vitro AR degradation assays conducted in VCaP cells and LNCaP cancer cells that harbor AR amplification and the AR mutation (T878A) mutation, respectively.
To determine the pharmacological effect of Compound A in vitro, AR degradation assays were conducted in VCaP (vertebral-cancer of the prostate) cancer cells and LNCaP (lymph node carcinoma of the prostate) cancer cells that harbor AR amplification and the AR mutation (T878A) mutation, respectively.
To determine the pharmacological effect of Compound A in vitro, AR degradation assays were conducted in VCaP cells and LNCaP prostate cancer cells that harbor AR amplification and the AR mutation (T878A) mutation, respectively.

AR W742L = target: T2, AR W742L (Homo sapiens, UniProt P10275, W742L); assay: AR degradation in T-Rex-293 cell line, W742L; format: cell-based; conditions: T-Rex-293, ELISA
T2 construct: expressed in transfected cells; host or cells: T-REx-293
T2 sequence (P10275 whole entry W742L): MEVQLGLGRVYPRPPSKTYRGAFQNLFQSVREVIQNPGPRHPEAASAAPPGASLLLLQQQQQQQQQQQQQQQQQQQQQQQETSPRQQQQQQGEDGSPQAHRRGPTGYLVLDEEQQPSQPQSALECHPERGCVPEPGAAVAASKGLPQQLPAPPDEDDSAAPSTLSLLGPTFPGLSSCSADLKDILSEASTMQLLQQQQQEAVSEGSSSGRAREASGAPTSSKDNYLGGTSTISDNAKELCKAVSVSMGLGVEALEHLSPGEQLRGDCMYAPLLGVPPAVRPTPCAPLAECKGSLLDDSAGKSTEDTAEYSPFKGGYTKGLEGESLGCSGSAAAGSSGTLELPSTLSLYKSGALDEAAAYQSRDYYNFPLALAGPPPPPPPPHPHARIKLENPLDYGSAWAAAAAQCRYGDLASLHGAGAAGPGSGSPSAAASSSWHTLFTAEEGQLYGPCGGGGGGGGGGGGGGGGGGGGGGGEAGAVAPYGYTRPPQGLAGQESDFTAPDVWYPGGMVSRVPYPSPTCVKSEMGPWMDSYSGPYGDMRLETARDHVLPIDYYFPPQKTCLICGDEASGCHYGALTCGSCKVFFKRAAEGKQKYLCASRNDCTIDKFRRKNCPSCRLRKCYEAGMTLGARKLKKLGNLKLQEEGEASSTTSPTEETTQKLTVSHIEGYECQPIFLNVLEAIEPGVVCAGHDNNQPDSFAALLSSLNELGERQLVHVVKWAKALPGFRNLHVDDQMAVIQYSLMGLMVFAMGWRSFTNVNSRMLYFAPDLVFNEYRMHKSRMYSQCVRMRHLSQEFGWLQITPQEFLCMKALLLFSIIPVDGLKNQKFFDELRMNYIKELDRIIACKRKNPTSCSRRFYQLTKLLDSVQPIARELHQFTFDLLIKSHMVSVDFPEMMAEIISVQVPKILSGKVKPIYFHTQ
From the text: (§1) FIG. 3 is a graph showing Compound A's ability to degrade clinically relevant mutated forms AR.
(§2) To assess the ability of Compound A to degrade variants of the AR, vectors expressing wild-type AR or mutant AR proteins harboring clinically observed mutations in the ligand binding domain (13 with single amino acid changes or 4 with 2 amino acid changes) (Azad A. A., Volik S. V., Wyatt A. W., et al. Androgen receptor gene aberrations in circulating cell-free DNA: biomarkers of therapeutic resistance in castration-resistant prostate cancer. Clin Cancer Res. 2015; 21:2315-2324; Robinson D., Van Allen E. M., Wu Y. M., et al. Integrative clinical genomics of advanced prostate cancer. Cell. 2015; 161:1215-1228; Ledet E. M., Lilly M. B., Sonpavde G., et al. Comprehensive analysis of AR alterations in circulating tumor DNA from patients with advanced prostate cancer. Oncologist.

AR M750T = target: T3, AR M750T (Homo sapiens, UniProt P10275, M750T); assay: AR degradation in T-Rex-293 cell line, M750T; format: cell-based; conditions: T-Rex-293, ELISA
T3 construct: expressed in transfected cells; host or cells: T-REx-293
T3 sequence (P10275 whole entry M750T): as the sequence (P10275 whole entry W742L) above, with L742W, M750T counted along it
From the text: as §1, §2

AR T878S = target: T4, AR T878S (Homo sapiens, UniProt P10275, T878S); assay: AR degradation in T-Rex-293 cell line, T878S; format: cell-based; conditions: T-Rex-293, ELISA
T4 construct: expressed in transfected cells; host or cells: T-REx-293
T4 sequence (P10275 whole entry T878S): as the sequence (P10275 whole entry W742L) above, with L742W, T878S counted along it
From the text: as §1, §2

AR S889G = target: T5, AR S889G (Homo sapiens, UniProt P10275, S889G); assay: AR degradation in T-Rex-293 cell line, S889G; format: cell-based; conditions: T-Rex-293, ELISA
T5 construct: expressed in transfected cells; host or cells: T-REx-293
T5 sequence (P10275 whole entry S889G): as the sequence (P10275 whole entry W742L) above, with L742W, S889G counted along it
From the text: as §1, §2

AR D891H = target: T6, AR D891H (Homo sapiens, UniProt P10275, D891H); assay: AR degradation in T-Rex-293 cell line, D891H (western blot); format: cell-based; conditions: T-Rex-293, western blot
T6 construct: expressed in transfected cells; host or cells: T-REx-293
T6 sequence (P10275 whole entry D891H): as the sequence (P10275 whole entry W742L) above, with L742W, D891H counted along it
From the text: as §1, §2

AR H875Y/T878A = target: T7, AR H875Y/T878A (Homo sapiens, UniProt P10275, H875Y/T878A); assay: AR degradation in T-Rex-293 cell line, H875Y/T878A; format: cell-based; conditions: T-Rex-293, ELISA
T7 construct: expressed in transfected cells; host or cells: T-REx-293
T7 sequence (P10275 whole entry H875Y/T878A): as the sequence (P10275 whole entry W742L) above, with L742W, H875Y, T878A counted along it
From the text: as §1, §2

AR F877L/T878A = target: T8, AR F877L/T878A (Homo sapiens, UniProt P10275, F877L/T878A); assay: AR degradation in T-Rex-293 cell line, F877L/T878A; format: cell-based; conditions: T-Rex-293, ELISA
T8 construct: expressed in transfected cells; host or cells: T-REx-293
T8 sequence (P10275 whole entry F877L/T878A): as the sequence (P10275 whole entry W742L) above, with L742W, F877L, T878A counted along it
From the text: as §1, §2

AR T878A/S889G = target: T9, AR T878A/S889G (Homo sapiens, UniProt P10275, S889G/T878A); assay: AR degradation in T-Rex-293 cell line, T878A/S889G; format: cell-based; conditions: T-Rex-293, ELISA
T9 construct: expressed in transfected cells; host or cells: T-REx-293
T9 sequence (P10275 whole entry T878A/S889G): as the sequence (P10275 whole entry W742L) above, with L742W, T878A, S889G counted along it
From the text: as §1, §2

[2] = test system: GSPT1, Aiolos, Ikaros, CK1α, and SALL4; assay: cereblon neomorphic substrate degradation in Ramos and SK-N-DZ cells; format: cell-based; conditions: 1 μM
PSA [3] = assay: plasma PSA levels by ELISA, intact VCaP tumor model; format: in vivo, mouse
From the text: Plasma PSA levels are used as a clinical biomarker of disease progression and are thought to be closely related with the degree of AR activity (Catalona, W. J., Richie, J. P., Ahmann, F. R., et al. Comparison of digital rectal examination and serum prostate specific antigen in the early detection of prostate cancer: results of a multicenter clinical trial of 6,630 men. The Journal of Urology. 1994; 151(5):1283-1290. Cleutjens, K. B., van Eekelen, C. C., van der Korput, H. A., et al. Two androgen response regions cooperate in steroid hormone regulated activity of the prostate-specific antigen promoter. J Biol Chem. 1996; 271(11):6379-6388.). Plasma PSA levels upon Compound A treatment were evaluated by ELISA in samples from the intact VCaP tumor model.

PSA [4] = assay: Phase 1/2 trial in mCRPC: PSA response; format: in vivo, human
Method: Evaluable analysis set include all Compound A treated participants with baseline PSA assessment and at least a C1D28 or later postbaseline PSA assessment. A PSA90 and PSA50 and PSA30 response is defined as a =90% or 50% or 30% decline in PSA from baseline PSA value, respectively.
Patients in the Phase 1 studies were administered from 40 mg to 500 mg Compound A once daily. Patients in the Phase 2 studies were administered 100 mg or 300 mg Compound A once daily.
In the Phase 1 and interim Phase 2 trial, AR LBD mutations were present in 28% (13 of 47) of patients' tumors. […] (FIG. 7; AR: androgen receptor; LBD: ligand-binding domain; PSA: prostate-specific antigen; PSA30: best PSA declines ≥30%; PSA50: best PSA declines ≥50%; H875: H875Y; T878: T878A or T878S.)
Evaluable analysis set include all Compound A treated participants with baseline PSA assessment and at least a C1D28 or later postbaseline PSA assessment. A PSA90 and PSA50 and PSA30 response is defined as =90% or 50% or 30% decline in PSA from baseline PSA value.

PSA [5] = assay: intracellular PSA ELISA in VCaP cells; format: cell-based; conditions: Homo sapiens, CSS + 0.1 nM R1881, 48 hours, read-out: IC50, inhibiting PSA expression
Method: Intracellular prostate specific antigen (PSA) levels were determined using a PSA enzyme-linked immunosorbent assay (ELISA). […] The cell proliferation was determined using the CellTiter-Glo® assay. […] The CaspaseGlo® assay was carried out to measure the level of apoptosis in cells.
To evaluate the pharmacological effect of Compound A in vitro, PSA, cell proliferation, and apoptosis assays were carried out in VCaP cells.

[6] = test system: receptors, ion channels, transporters, and enzymes; assay: selectivity screening panel of 44 targets: other targets; format: binding; conditions: 1 μM; interaction = effect greater than 50% of positive control
Method: Compound A was tested at 1 μM in a screening study to assess the interaction of Compound A with a panel of 44 targets, including receptors, ion channels, transporters, and enzymes. Any effect greater than 50% of the positive control for a target was considered to represent an interaction of the test compound with the target.

T1 sequence (P10275 whole entry T878A): as the sequence (P10275 whole entry W742L) above, with L742W, T878A counted along it

COc1cc(O[C@H]2C(C)(C)[C@H](NC(=O)c3ccc(N4CCC(CN5CCN(c6ccc(C(=O)N[C@H]7CCC(=O)NC7=O)c(F)c6)CC5)CC4)cc3)C2(C)C)ccc1C#N [Compound A, 4-(4-((1-(4-(((1R,3R)-3-(4-cyano-3-methoxyphenoxy)-2,2,4,4-tetramethylcyclobutyl)carbamoyl)phenyl)piperidin-4-yl)methyl)piperazin-1-yl)-N—((S)-2,6-dioxopiperidin-3-yl)-2-fluorobenzamide]
DC50 [1]: ≤ 1.3 nM | Dmax [1]: ≥ 91% | DC50 (AR W742L): 2.3 nM | DC50 (AR M750T): 0.6 nM | DC50 (AR T878S): 0.9 nM | DC50 (AR S889G): 3.1 nM | DC50 (AR D891H): 3.9 nM | DC50 (AR H875Y/T878A): 7.7 nM | DC50 (AR F877L/T878A): 7 nM | DC50 (AR T878A/S889G): 3.6 nM | degradation of GSPT1, Aiolos, Ikaros, CK1α, and SALL4 [2]: did not lead to degradation | plasma PSA levels vs enzalutamide (PSA [3]; 3 mg/kg and 10 mg/kg vs 20 mg/kg enzalutamide): reduced PSA levels more robustly than 20 mg/kg of enzalutamide | plasma PSA levels (PSA [3]; all 3 doses (10, 3, 1 mg/kg/day), tumor-bearing intact mice): reduced PSA levels in a dose-dependent manner | PSA decline in patient with mCRPC with wild-type AR (PSA [4]; FIG. 14): Deep PSA decline | patients with AR LBD mutations achieving PSA50 (PSA [4]; Phase 1 and interim Phase 2): 42% | patients with AR LBD mutations achieving PSA50 (PSA [4]; as the trial progressed, 7 of 17): 41% | IC50 (PSA [5]): 4 nM | interaction with any other target of the panel of 44 targets [6]: No interaction with any other target was identified
